Experiment: xn = mol fraction of the nth substance listed
Settings: 101 kPa

CCCCCCCCn1cc[n+](C)c1.O=[N+]([O-])[O-] + CCO
viscosity [mPa·s]
Settings	283.15 K	288.15 K	293.15 K	298.15 K	303.15 K	308.15 K	313.15 K	318.15 K	323.15 K	328.15 K
x2 = 0.128	970	660	460	333	246	185	143	–	81.4	–
x2 = 0.266	380	266	198	150	116	89.1	68.9	55.9	45.9	32
x2 = 0.357	216	–	124	97	73.4	58.4	48.3	–	33.3	–
x2 = 0.455	102	76.2	–	47.5	38.3	31.2	25.8	–	18.59	14.08
x2 = 0.554	–	38.6	31.5	26.1	–	18.4	15.71	13.53	11.78	–
x2 = 0.662	24.8	20.62	17.19	14.52	12.44	10.83	9.55	8.69	7.83	6.2
x2 = 0.767	11.64	9.86	–	–	–	5.72	–	4.46	3.99	3.27
x2 = 0.868	5.09	–	3.97	3.49	3.13	2.8	2.53	2.3	2.1	1.77

CCCCCCCCn1cc[n+](C)c1.O=[N+]([O-])[O-] + CCCO
viscosity [mPa·s]
Settings	283.15 K	288.15 K	293.15 K	298.15 K	303.15 K	308.15 K	313.15 K	318.15 K	323.15 K	328.15 K
x2 = 0.107	1091	730	510	365	267	201	153	120	95.4	–
x2 = 0.258	490	–	258	191	–	113	86.9	–	53.4	36.5
x2 = 0.364	218	164	127	99.7	–	63	51.1	42.1	35	25
x2 = 0.47	114	85.8	–	60	48.5	39.7	–	27.6	23.44	17.34
x2 = 0.556	65.4	–	–	34.4	28.6	–	20.38	17.44	15.08	–
x2 = 0.671	28.8	23.8	–	16.84	14.41	12.45	–	–	8.41	6.55
x2 = 0.756	16.16	13.66	11.67	10.07	8.77	7.63	6.75	5.93	5.21	4.2
x2 = 0.866	7.84	6.8	5.85	–	4.48	3.94	3.52	3.14	2.82	2.31

CCCCCCCCn1cc[n+](C)c1.O=[N+]([O-])[O-] + CCCCO
viscosity [mPa·s]
Settings	283.15 K	288.15 K	293.15 K	298.15 K	303.15 K	308.15 K	313.15 K	318.15 K	323.15 K	328.15 K
x2 = 0.168	–	530	380	277	207	158	–	97.4	73.2	48.9
x2 = 0.261	440	311	229	172	132	103	78.5	63.4	51.6	35.5
x2 = 0.358	241	179	–	105	80.6	–	–	–	35.7	25.5
x2 = 0.458	126	98.8	74.2	–	–	39.3	32.6	27.3	–	–
x2 = 0.57	59.4	47.4	–	–	26.4	22.29	18.98	16.3	–	10.88
x2 = 0.676	29.9	24.7	–	17.43	–	–	11.15	9.75	–	6.84
x2 = 0.754	18.67	15.69	13.36	11.44	9.92	8.74	7.63	6.76	5.98	4.76
x2 = 0.848	10.45	9.03	–	–	5.92	5.15	4.56	4.03	–	2.93

From a compilation of properties of binary mixtures (doi:10.1021/je901058s)
